Values quoted from earlier work in patent US8415362B2, “Pyrazolyl substituted pyrrolo[2,3-b]pyrimidines as Janus kinase inhibitors” (Incyte Corporation, priority 2005, dated 2013).
One block for each molecule: values may come before it.

What was measured:
[1] = molecular target: T1, JAK3 (Mus musculus, UniProt Q62137)
T1 construct: host or cells: NOD mouse (in vivo)
T1 sequence (Q62137 1-1100): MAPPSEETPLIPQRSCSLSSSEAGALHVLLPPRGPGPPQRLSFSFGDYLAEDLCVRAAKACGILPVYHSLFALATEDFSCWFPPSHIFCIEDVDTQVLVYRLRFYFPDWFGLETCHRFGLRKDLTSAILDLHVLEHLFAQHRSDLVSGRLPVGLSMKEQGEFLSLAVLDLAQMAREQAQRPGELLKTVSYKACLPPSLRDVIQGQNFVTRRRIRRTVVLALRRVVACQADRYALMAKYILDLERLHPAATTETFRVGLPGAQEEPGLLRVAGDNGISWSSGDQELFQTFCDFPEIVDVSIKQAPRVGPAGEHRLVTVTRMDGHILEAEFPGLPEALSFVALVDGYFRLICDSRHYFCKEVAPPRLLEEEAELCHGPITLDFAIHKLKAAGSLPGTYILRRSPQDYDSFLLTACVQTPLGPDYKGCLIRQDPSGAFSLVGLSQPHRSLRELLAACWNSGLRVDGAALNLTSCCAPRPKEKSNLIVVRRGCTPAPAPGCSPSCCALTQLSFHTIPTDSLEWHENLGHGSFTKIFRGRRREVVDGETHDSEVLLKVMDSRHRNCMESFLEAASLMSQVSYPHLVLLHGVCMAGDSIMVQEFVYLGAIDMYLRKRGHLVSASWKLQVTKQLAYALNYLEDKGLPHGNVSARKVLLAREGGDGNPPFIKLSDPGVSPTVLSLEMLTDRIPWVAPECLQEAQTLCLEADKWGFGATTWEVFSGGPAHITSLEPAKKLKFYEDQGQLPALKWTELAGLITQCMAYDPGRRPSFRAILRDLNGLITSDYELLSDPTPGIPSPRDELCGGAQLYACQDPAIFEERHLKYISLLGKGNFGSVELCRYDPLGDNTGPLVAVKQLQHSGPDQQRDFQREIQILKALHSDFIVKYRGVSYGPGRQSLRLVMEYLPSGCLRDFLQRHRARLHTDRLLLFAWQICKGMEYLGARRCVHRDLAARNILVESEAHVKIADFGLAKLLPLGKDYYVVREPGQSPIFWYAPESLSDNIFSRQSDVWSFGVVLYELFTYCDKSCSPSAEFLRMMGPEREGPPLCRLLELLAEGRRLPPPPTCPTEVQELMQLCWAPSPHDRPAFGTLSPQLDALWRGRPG

[2] = some patients
[3] = test system: myeloid dendritic cells (DCs); conditions: DCs arrested at an immature level
[4] = test system: IL-6-dependent MM cell lines

onset of diabetes ([1]; NOD mouse model of autoimmune type I diabetes): delayed the onset of diabetes
immunomodulatory activity ([1]; mouse, in vivo): potent immunomodulatory activity
SMILES: COc1cc2ncnc(Nc3ccc(O)cc3)c2cc1OC [JANEX-1]

acneiform rash [2]: induced acneiform rash
SMILES: C#Cc1cccc(Nc2ncnc3cc(OCCOC)c(OCCOC)cc23)c1 [Tarceva]

SMILES: COc1cc2ncnc(Nc3ccc(O)c(Br)c3)c2cc1OC [WHI-P-154]
CD40-induced effects (JAK3 activity, costimulatory molecule expression, IL-12 production, allogeneic stimulatory capacity) [3]: prevented these effects

SMILES: N#C/C(=C\c1ccc(O)c(O)c1)C(=O)NCc1ccccc1 [tyrphostin AG490]
ERK2 and STAT3 phosphorylation ([4]; IL-6-dependent MM cell lines): inhibited
JAK2 kinase activity ([4]; IL-6-dependent MM cell lines): inhibited
apoptosis ([4]; IL-6-dependent MM cell lines): induced
cell proliferation ([4]; IL-6-dependent MM cell lines): suppressed
dormancy of tumor cells ([4]; in some cases, then protects the tumor cells from death): induce dormancy of tumor cells
